Experimental data taken from PMC4595804, “A strategy to discover decoy chemokine ligands with an anti-inflammatory activity” (Scientific Reports, 2015).

Assays:
HUT78 T cells = assay: WST-1 metabolic activity assay; assay type: cell-based, human; details: 30 μM (highest concentration), 72 h
From the text: WST-1 metabolic activity assay
The colorimetric WST-1 cell metabolic assay (Ozyme) was used to assess the cytotoxic effect of chemokine neutraligands. This is a cell viability test based on the enzymatic cleavage by the mitochondrial succinate-tetrazolium reductase of a tetrazolium salt, WST-1 (4-[3-(4-Iodophenyl)-2-(4-nitrophenyl)-2H-5-tetrazolio]-1,3 benzene disulfonate), into a water- […]
soluble formazan dye which can be detected by absorbance at 420-480nm. HUT78 T cells (or HaCat cells) were seeded on 24-well plates (200,000 cells per well) and were incubated […]
concentration ≤1% on cells). The background control was reserved as one well containing the culture medium only. The plates were incubated for 72h at 37°C. Three days later, the medium containing the neutraligands was removed, and WST-1 reagent (1:10 final dilution) (Ozyme) was added to each well for a 2h incubation at 37°C as the manufacturer’s recommendation. The plates were shaken and absorbance was measured at 450nm (reference wavelength 690nm) against the background control, using a multiwell plate reader (EnVision, Perkin Elmer). Assays were performed as three independent replicates. […]
(Heidelberg, Germany) and was cultured in Dulbecco’s Modified Eagle Medium (DMEM) (Invitrogen) supplemented with 10% fetal bovine serum (FBS) (Gibco-BRL), 100U/ml penicillin (Invitrogen), 100µg/ml streptomycin (Invitrogen) and 2mM L-glutamine (Invitrogen) at 37°C and 5% CO 2. The cells received fresh medium every other day and were subcultured every 10 days. HaCat cells were seeded in a 24-well plate (ESSEN Bioscience) at a density of 200,000 cells per well, and were allowed to grow until confluence. A scratch wound along the cell monolayer was created using the Essen woundmakerTM. Cells were washed twice with PBS to remove detached cells, and were treated with serum-free culture medium in the absence or presence of 100ng/ml chemokine (CCL22 or CCL17) preincubated with DMSO or […]
The molecules were also tested alone […]
without the chemokine. […] One […]
µg/ml of mitomycin C (Sigma-Aldrich) was added throughout the experiment in order to block cell proliferation. Once treated, the cells were immediately placed into the IncuCyteTM live-cell imaging, and the cell migration onto the wounded area was examined for 72h. Phase-contrast images acquired for each sample were captured every 2h (objective lens x10), and […]

CXCL11 = target: T1, CXCL11 (Homo sapiens, UniProt O14625); assay: Selectivity, neutraligand protocol, EGFP-CXCR3+ HEK cells; assay type: cell-based; details: 10 μM compound, 5 nM CXCL11, EGFP-CXCR3+ HEK cells
T1 construct: thioredoxin-hexahistidin (TRX-(His)6) with enterokinase site; made in house; host or cells: E. coli BL21 (DE3)
T1 sequence (O14625 22-94): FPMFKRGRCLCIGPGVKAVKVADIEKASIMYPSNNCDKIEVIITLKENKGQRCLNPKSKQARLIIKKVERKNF
Experimental: (§1) Figure 6 (a) Selectivity of CCL17 and CCL22 neutraligands towards 10 chemokines according to the “neutraligand protocol”. […] Each column represents the mean (block) ± SD (bars) of n = 3 experiments performed in triplicate. *p < 0.05; **p < 0.01; ***p < 0.005 as compared to chemokine + DMSO. (b) Chemokine neutraligands inhibited CCR4 endocytosis induced by CCL22 or CCL17. EGFP-CCR4^+ HEK cells were incubated for 30 min with DMSO or chemokine (100 nM CCL22 or CCL17) in the presence or absence of test compounds. […] Cell surface EGFP-tagged CCR4 receptors were measured by EGFP antibody labeling and flow cytometry analysis. CCR4 internalization was expressed as a percentage of total receptor surface expression calculated using control cells incubated with DMSO (100%). Each column represents the mean (block) ± SD (bars) of n = 3 experiments performed in triplicate. *p < 0.05; **p < 0.01; ***p < 0.005 as compared to chemokine alone. (c,d) Inhibition of CCL17 and CCL22- induced CCR4^+HUT78 T cell chemotaxis by neutraligands. […] The number of migrating cells induced by a chemokine alone was set at 100% migration. The number of migrating cells in the presence of chemokine and compounds were expressed as the corresponding percentages. Results were analyzed by fitting the experimental curves (% of migrating cells vs log compound concentration) using the Kaleidagraph software program, and the corresponding IC50 values were calculated. Means and SD values of triplicates were plotted.
(§2) Human cDNAs encoding CCR4 and CXCR3 receptors were cloned in pIRES plasmid (Clontech) while cDNAs encoding CCR2, CCR5, CXCR2 and CXCR4 receptors were cloned in pCEP4 vector (Life technologies). […] Stably EGFP-CCR4^+ HEK cells were selected for 5 weeks with geneticin (G-418, 600μg/ml), and resulting cell clones were checked by fluorescence microscopy and FACS analysis. […]
(§3) Dye loaded cells were placed in the FlexStation 3 (Molecular Devices). Calcium mobilization was measured at 401 and 475 nm emission fluorescence after excitation at 355 nm. […] Raw fluorescence data (at 401 and 475 nm) were exported and the ratio 401/475 was calculated. The calcium response values (height of peak response over baseline) were determined. […] The Z’ factor[29] was calculated according to the following equation: Z’ = 1-(3SD+ + 3SD−)/|Ave+ − Ave−|, where SD+ and Ave+ are respectively the standard deviation and the mean value of the positive controls (chemokine + DMSO), while SD− and Ave− are respectively the standard deviation and the mean value of the negative controls (HEPES-BSA (0.1%) mixed with DMSO, or cells mixed with C-021). Hit molecules were confirmed by performing concentration-response curves and their half maximal inhibitory concentration (IC50) values were calculated using the Kaleidagraph software.

CXCL10 = target: T2, CXCL10 (Homo sapiens, UniProt P02778); assay: as above; assay type: cell-based; details: 10 μM compound, 5 nM CXCL10, EGFP-CXCR3+ HEK cells
T2 construct: (His)6; made in house; host or cells: E. coli BL21 (DE3)
T2 sequence (P02778 22-98): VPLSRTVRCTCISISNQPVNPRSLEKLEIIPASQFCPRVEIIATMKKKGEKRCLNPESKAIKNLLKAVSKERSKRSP
Experimental: as §1, §2, §3

SMILES	cytotoxic activity on HUT78 T cells (metabolic activity vs control non-treated cells) (HUT78 T cells)	effect on calcium responses induced by CXCL11 (CXCL11)	effect on calcium responses induced by CXCL10 (CXCL10)
O=C(OCC(O)CO)c1ccccc1O (stereo not drawn) [GPN136, 2,3-dihydroxypropyl 2-hydroxybenzoate]	no cytotoxic activity	no effect	no effect
CC(C)=CCn1cnc2c1c(=O)n(C)c(=O)n2C [GPN279, 1,3-dimethyl-7-(3-methylbut-2-enyl)-1H-purine-2,6(3H, 7H)-dione]	no cytotoxic activity	no effect	no effect
